From ChEMBL document CHEMBL4823324, “Discovery of BMS-986318, a Potent Nonbile Acid FXR Agonist for the Treatment of Nonalcoholic Steatohepatitis” (ACS Med Chem Lett, 2021)

Assays:
[1] = molecular target: T1, Peroxisome proliferator-activated receptor alpha (Homo sapiens, UniProt Q07869); assay: Activation of PPARalpha LBD (unknown origin) co-expressed with Gal4UAS-luciferase reporter in HEK293 cells incubated for 24 hrs by Steady-Glo luciferase reporter gene based luminescence analysis; type: cell-based
T1 sequence (Q07869 whole entry): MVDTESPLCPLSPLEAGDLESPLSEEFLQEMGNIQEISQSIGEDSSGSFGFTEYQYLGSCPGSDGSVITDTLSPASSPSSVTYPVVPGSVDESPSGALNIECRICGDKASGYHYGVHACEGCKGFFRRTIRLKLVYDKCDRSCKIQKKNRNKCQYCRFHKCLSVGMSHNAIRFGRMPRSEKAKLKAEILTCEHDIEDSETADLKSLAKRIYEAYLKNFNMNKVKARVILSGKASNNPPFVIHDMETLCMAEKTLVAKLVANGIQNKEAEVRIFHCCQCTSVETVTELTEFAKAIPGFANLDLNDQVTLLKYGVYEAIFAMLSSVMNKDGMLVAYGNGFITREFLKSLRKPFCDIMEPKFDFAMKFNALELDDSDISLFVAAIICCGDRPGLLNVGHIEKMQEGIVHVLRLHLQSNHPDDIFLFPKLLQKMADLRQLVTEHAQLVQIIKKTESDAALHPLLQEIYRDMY

[2] = Cmax in C57B6 mouse at 2 mg/kg, po administered as suspension; type: ADME, organism-based; set-up: route oral, dose 2 mg/kg; details: in vivo
[3] = AUC in C57B6 mouse at 2 mg/kg, po administered as suspension; type: ADME, organism-based; set-up: dose 2 mg/kg; details: in vivo

## O=C(O)c1cc(C(F)(F)F)c2cc(N3CCC4(C=C(c5c(-c6c(Cl)cncc6Cl)noc5C5CC5)C4)CC3)ccc2n1
[1]
  EC50: > 40 µM
[2]
  Cmax: 1030 nM
[3]
  AUC: 4.76 µM·h
